Measurements taken from patent US20100317671A1, “XANTHINE-BASED CYCLIC GMP-ENHANCING RHO-KINASE INHIBITOR INHIBITS PHYSIOLOGICAL ACTIVITIES OF LUNG EPITHELIAL CELL LINE” (KAOHSIUNG MEDICAL UNIVERSITY, priority 2008, published 2010).

How the values were obtained:
Type in all cases: in vivo
[1] = test system: inflammatory cells in the lung lavage; assay: Inflammatory cells in lung lavage, bleomycin-induced IPF mice; set-up: WBC total (white blood cell total count) / NE (neutrophil) / LY (lymphocyte) / MO (monocyte) / EO (eosinophil) / BA (basophil): unit not given here; settings: for Amount of WBC in lung lavage: lung inflammatory stage; for BA (basophil) / EO (eosinophil) / LY (lymphocyte) / MO (monocyte) / NE (neutrophil) / WBC total (white blood cell total count): lung lavage
Procedure: The amounts of the total cell, the neutrophill, the lymphocyte, the monocyte, the eosinophill and the basophill are analyzed by an automatic animal blood cell analyzer for evaluating the extent of the inflammation. […] The mice are euthanatized by administering the Urathane in a dose of 37.5 mg/10 g. The larynx is opened, the trachea is picked out, cut and held by a forcepts and a 0.58 mm PE tube is slowly inserted the trachea for infusing 0.5 ml PBS. The PBS is incubated for 15 seconds and then collected after gently massaging the lung tissue. 1 c.c. lung lavage is obtained after the above steps are repeated twice. The lung lavage is collected and transferred into a centrifuged tube for centrifuging at 1,200 rpm at 4° C. for 6 mins. The supernatant is collected and stored at −80° C. for zymography, and the pellet is suspended in PBS for calculating the WBC count. The pellet of the alveolar lavage is suspended in PBS and transferred into an eppendorff. The amount and kind of the inflammatory cell such as WBC total, the lymphocyte, the monocyte, the neutrophil, the eosinophil and the basophil are analyzed by an automatic animal blood cell analyzer.

MMP-2 [2] = assay: Gelatin zymography of lung lavage, bleomycin mice; settings: for MMP-2 expression in lung lavage (zymography): day 7 or day 28, p<0.05; for Expression of MMP2 in lung lavage: lung inflammatory stage
Procedure: (§1) The activities of MMP-2 (FIGS. 7A and 8A) and MMP-9 (FIGS. 7B and 8B) in the lung lavage of mice on day 7 (FIG. 7) and day 28 (FIG. 8) are analyzed by zymography. The expression levels are minor in the normal control group. […] The expressions of MMP-2 and MMP-9 on day 7 are higher than that on day 28. […] It is seen that KMUPs have the effect of mitigating the inflammation.
(§2) The MMPs in the lung lavaga are measured by zymography. It is known that all of the MMP-1, MMP-2, MMP-3, MMP-7 and MMP-9 can degrade the gelatin, especially the MMP-2 and MMP-9. The activity of collagenase can be analyzed by SDS-PAGE gel adding by gelatin. After the collected bronchoalveolar lavage fluid (BALF) is electrophoreted, the SDS is removed with 2.5% (v/v) Triton X-100 and the activity of collagenase is recovered to degrade the gelatin. After reacting for a period of time, the commassie blue is utilized for staining and destaining so that a transparent band in the area having the collagenase activity can be seen owing to the gelatin is degraded.
(§3) The BALF is collected and the concentration thereof is measured by Bio-Rad DC protein assay. The absorption of BALF at 595 nm wavelength is measured by an ELISA reader with a BSA standard, and the concentration of the sample is measured according to the standard curve of this absorption value.
(§4) The sample is mixed with non sample buffer. After reacting under temperature for 10 mins, the separating gel containing 0.1% gelatin is utilized for electrophoresis analysis under low temperature. While the electrophoresis is finished, the gel is immersed in 2.5% Triton X-100 buffer to react under temperature for half hour. The 2.5% Triton X-100 buffer is exchanged to react under temperature for additional half hour. The gel is immersed in the developing buffer at 37° C. for 24 hrs, stained with staining buffer for 1 hr and destained with the destaining buffer, and the transparent band can be seen.

MMP-9 [3] = assay: Gelatin zymography of lung lavage, bleomycin mice; settings: for MMP-9 expression in lung lavage (zymography): day 7 or day 28, p<0.05; for Expression of MMP-9 in lung lavage: lung inflammatory stage
Procedure: as §1, §2, §3, §4

MMP-2 [4] = assay: Western blotting of lung tissue, bleomycin mice; settings: increased by bleomycin; p<0.01
Procedure: (§5) The lung tissue is analyzed by western blotting, and the MMP-2 and MMP-9 protein expressions are shown in both of the FIGS. 9 and 10. In the lung tissue, the MMP-2 expression is more significant than MMP-9. KMUP-1 and KMUP-5 may mitigate the expressions of MMP-2 and MMP-9 increased by administrating the bleomycin (p<0.01).
(§6) (1) The mice lung is immersed in the tissue lysis buffer and homogenized by an ultrasound sonicator on ice.
(§7) (2) The lysate is centrifuged at 13,000 g under 4° C. for 30 mins. The supernatant is collected and the protein concentration measurement adopts the“Bio-Rad DC protein assay”. After diluting the protein as specific concentrations, the sample buffer being one fourth of the sample volume is added thereinto for heating at 100° C. for 5 mins, and the sample is loaded into each wells of SDS-PAGE gel in turn. The running buffer is added into the electrophoresis tank for electrophoresis at 100 V, the voltage is adjusted as 200 V when the protein runs to the lower gel, and the electrophoresis is stopped when the SDS-PAGE dye enters the SDS-PAGE.
(§8) (3) The PVDF membrane is rinsed ith transfer buffer for use, and the protein on the SDS-PAGE is transferred to the PVDF membrane. The SDS-PAGE layer covering on the PVDF membrane is placed in a protein transfer tank immersed with the transfer buffer with the current set at 100V. After 80 mins, the transfer is completed and then the PVDF membrane is taken out.
(§9) (4) after cutting the band having an appropriate molecular weight on the PVDF membrane, an appropriate amount of the blocking buffer is added to for blocking under room temperature to remove the non-specific binding. Then, evenly covering the diluted primary antibody on the PVDF membrane to react under room temperature for 2 hrs, and the excessive antibodies are removed by T-TBS. Further, evenly covering the diluted secondary antibody to react under room temperature for 1 hr and finally washing the excessive antibodies with T-TBS. The enhanced chemiluminescence (ECL) agent is added for reacting for 1-90 secs. After exposing to a x-ray film, the reaction is completed.

MMP-9 [5] = assay: Western blotting of lung tissue, bleomycin mice; settings: increased by bleomycin; p<0.01
Procedure: as §5, §6, §7, §8, §9

Smad 3 = assay: Smad3 expression by western blotting, bleomycin mice; settings: lung fibrotic stage
Procedure: At day 28, it is observed that expression of eNOS is decreased, the expressions of TGF-β, Smad 3 and HMGB1 are increased and there is significant collagen accumulation in the tissue sections.
The TGF-β (FIG. 12), CTGF (FIG. 13) and Smad3/p-Smad3 (FIG. 14) protein expressions in the lung tissue are analyzed by western blotting.
as §6, §7
(3) The PVDF membrane is rinsed ith transfer buffer for use, and the protein on the SDS-PAGE is transferred to the PVDF membrane. The SDS-PAGE layer covering on the PVDF membrane is placed in a protein transfer tank immersed with the transfer buffer with the current set at 100V. […]

[6] = day 7, dose 2.5 mg/kg (Combination: 2.5 mg/kg each drug)
[7] = day 28, dose 2.5 mg/kg (Combination: 2.5 mg/kg each drug)

Cn1c(=O)c2c(ncn2CCN2CCN(c3ccccc3Cl)CC2)n(C)c1=O [KMUP-1, 7-[2-[4-(2-chlorobenzene)piperazinyl]ethyl]-1,3-dimethylxanthine]
Amount of WBC in lung lavage [1]: efficiently decrease
BA (basophil) ([1]; day 7, dose 1 mg/kg): 0.2 ± 0.01
EO (eosinophil) ([1]; day 7, dose 1 mg/kg): 0.44 ± 0.02
LY (lymphocyte) ([1]; day 7, dose 1 mg/kg): 1.83 ± 0.11
MO (monocyte) ([1]; day 7, dose 1 mg/kg): 0.12 ± 0.02
NE (neutrophil) ([1]; day 7, dose 1 mg/kg): 0.92 ± 0.13
WBC total (white blood cell total count) ([1]; day 7, dose 1 mg/kg): 3.51 ± 0.01
BA (basophil) [1, 6]: 0.11 ± 0.02
EO (eosinophil) [1, 6]: 0.17 ± 0.11
LY (lymphocyte) [1, 6]: 1.81 ± 0.09
MO (monocyte) [1, 6]: 0.07 ± 0.01
NE (neutrophil) [1, 6]: 0.91 ± 0.36
WBC total (white blood cell total count) [1, 6]: 3.2 ± 0.49
BA (basophil) ([1]; day 7, dose 5 mg/kg): 0.1 ± 0.02
EO (eosinophil) ([1]; day 7, dose 5 mg/kg): 0.16 ± 0.01
LY (lymphocyte) ([1]; day 7, dose 5 mg/kg): 1.76 ± 0.01
MO (monocyte) ([1]; day 7, dose 5 mg/kg): 0.07 ± 0.01
NE (neutrophil) ([1]; day 7, dose 5 mg/kg): 0.33 ± 0.14
WBC total (white blood cell total count) ([1]; day 7, dose 5 mg/kg): 2.43 ± 0.01
BA (basophil) ([1]; day 28, dose 1 mg/kg): 0.21 ± 0.06
EO (eosinophil) ([1]; day 28, dose 1 mg/kg): 0.42 ± 0.17
LY (lymphocyte) ([1]; day 28, dose 1 mg/kg): 1.89 ± 0.76
MO (monocyte) ([1]; day 28, dose 1 mg/kg): 0.2 ± 0.25
NE (neutrophil) ([1]; day 28, dose 1 mg/kg): 0.61 ± 0.11
WBC total (white blood cell total count) ([1]; day 28, dose 1 mg/kg): 3.41 ± 0.54
BA (basophil) [1, 7]: 0.11 ± 0.7
EO (eosinophil) [1, 7]: 0.17 ± 0.12
LY (lymphocyte) [1, 7]: 1.24 ± 0.43
MO (monocyte) [1, 7]: 0.07 ± 0.02
NE (neutrophil) [1, 7]: 0.36 ± 0.16
WBC total (white blood cell total count) [1, 7]: 1.95 ± 0.92
BA (basophil) ([1]; day 28, dose 5 mg/kg): 0.1 ± 0.02
EO (eosinophil) ([1]; day 28, dose 5 mg/kg): 0.16 ± 0.01
LY (lymphocyte) ([1]; day 28, dose 5 mg/kg): 1.1 ± 0.01
MO (monocyte) ([1]; day 28, dose 5 mg/kg): 0.07 ± 0.01
NE (neutrophil) ([1]; day 28, dose 5 mg/kg): 0.33 ± 0.14
WBC total (white blood cell total count) ([1]; day 28, dose 5 mg/kg): 1.8 ± 0.01
MMP-2 expression in lung lavage (zymography) (MMP-2 [2]): significantly decrease
Expression of MMP2 in lung lavage (MMP-2 [2]): efficiently decrease
MMP-9 expression in lung lavage (zymography) (MMP-9 [3]): significantly decrease
Expression of MMP-9 in lung lavage (MMP-9 [3]): efficiently decrease
MMP-2 protein expression in lung tissue (western blotting) (MMP-2 [4]): mitigate
MMP-9 protein expression in lung tissue (western blotting) (MMP-9 [5]): mitigate
Expression of Smad 3 (Smad 3): inhibit

CCC(C)(C)C(=O)O[C@H]1C[C@@H](C)C=C2C=C[C@H](C)[C@H](CC[C@@H](O)C[C@@H](O)CC(=O)O)[C@H]21.Cn1c(=O)c2c(ncn2CCN2CCN(c3ccccc3Cl)CC2)n(C)c1=O [KMUP-5]
Amount of WBC in lung lavage [1]: efficiently decrease
BA (basophil) [1, 6]: 0.02 ± 0.01
EO (eosinophil) [1, 6]: 0.06 ± 0.04
LY (lymphocyte) [1, 6]: 0.45 ± 0.17
MO (monocyte) [1, 6]: 0.03 ± 0.02
NE (neutrophil) [1, 6]: 0.18 ± 0.08
WBC total (white blood cell total count) [1, 6]: 0.74 ± 0.21
BA (basophil) [1, 7]: 0.01 ± 0.16
EO (eosinophil) [1, 7]: 0.05 ± 0.3
LY (lymphocyte) [1, 7]: 1.32 ± 1.59
MO (monocyte) [1, 7]: 0.06 ± 0.11
NE (neutrophil) [1, 7]: 0.14 ± 0.39
WBC total (white blood cell total count) [1, 7]: 1.58 ± 2.24
MMP-2 expression in lung lavage (zymography) (MMP-2 [2]): significantly decrease
Expression of MMP2 in lung lavage (MMP-2 [2]): efficiently decrease
MMP-9 expression in lung lavage (zymography) (MMP-9 [3]): significantly decrease
Expression of MMP-9 in lung lavage (MMP-9 [3]): efficiently decrease
MMP-2 protein expression in lung tissue (western blotting) (MMP-2 [4]): mitigate
MMP-9 protein expression in lung tissue (western blotting) (MMP-9 [5]): mitigate
Expression of Smad 3 (Smad 3): inhibit
